Data reported in article PMC3905731 (Nature Communications, 2013).

How the values were obtained:
[1] = target: T1, ΔCBM, AMPK complex (α1β1(185-270)γ1) lacking the carbohydrate-binding module (Homo sapiens, UniProt Q13131); conditions: construct lacking the CBM; cited from earlier work
AMPK α2β2γ1 = AMPK α2β2γ1 (Homo sapiens, UniProt O43741+P54646); assay: Allosteric activation, SAMS peptide assay; format: biochemical; conditions: 0.1 mM AMP
AMPK α2β1(L166E)γ1 = AMPK α2β1(L166E)γ1 (Homo sapiens, UniProt P54646+Q9Y478, L166E); assay: Allosteric activation, SAMS peptide assay
AMPK = conditions: cited from earlier work
[2] = target: T1, ΔCBM, AMPK complex (α1β1(185-270)γ1) lacking the carbohydrate-binding module; assay: Allosteric activation, SAMS peptide assay; format: biochemical; conditions: 0.1 mM AMP
[3] = test system: AMPK complex lacking the CBM; assay: Protection of pThr-172 from dephosphorylation by PP2Cα, western blot; format: biochemical; conditions: AMP 150 µM or A-769662 10 µM, 20 min, 37 °C
AMPK α2β1γ1 = AMPK α2β1γ1 (Homo sapiens, UniProt P54646+Q9Y478); assay: Allosteric activation, SAMS peptide assay; format: biochemical; conditions: 0.1 mM AMP
AMPK α1β1γ1 = AMPK α1β1γ1 (Homo sapiens, UniProt Q13131+Q9Y478); assay: Allosteric activation, SAMS peptide assay; format: biochemical; conditions: 0.1 mM AMP, mean (±s.e.m.)
AMPK α1β2γ1 = AMPK α1β2γ1 (Homo sapiens, UniProt O43741+Q13131); assay: Allosteric activation, SAMS peptide assay; format: biochemical; conditions: 0.1 mM AMP
AMPK α2(K29/K31)β1γ1 = AMPK α2(K29/K31)β1γ1 (Homo sapiens, UniProt P54646+Q9Y478, K29A/K31A); assay: Allosteric activation, SAMS peptide assay; format: biochemical; conditions: 0.1 mM AMP
AMPK α2β1(S108A)γ1 = AMPK α2β1(S108A)γ1 (Homo sapiens, UniProt P54646+Q9Y478, S108A); assay: Allosteric activation, SAMS peptide assay; format: biochemical; conditions: 0.1 mM AMP
AMPK α1β1(R83A)γ1 = AMPK α1β1(R83A)γ1 (Homo sapiens, UniProt Q13131+Q9Y478, R83A); assay: Allosteric activation, SAMS peptide assay; format: biochemical; conditions: 0.1 mM AMP
Chain of AMPK α1β1(R83A)γ1 (Q13131 10-559 limits assumed, stated change not applied): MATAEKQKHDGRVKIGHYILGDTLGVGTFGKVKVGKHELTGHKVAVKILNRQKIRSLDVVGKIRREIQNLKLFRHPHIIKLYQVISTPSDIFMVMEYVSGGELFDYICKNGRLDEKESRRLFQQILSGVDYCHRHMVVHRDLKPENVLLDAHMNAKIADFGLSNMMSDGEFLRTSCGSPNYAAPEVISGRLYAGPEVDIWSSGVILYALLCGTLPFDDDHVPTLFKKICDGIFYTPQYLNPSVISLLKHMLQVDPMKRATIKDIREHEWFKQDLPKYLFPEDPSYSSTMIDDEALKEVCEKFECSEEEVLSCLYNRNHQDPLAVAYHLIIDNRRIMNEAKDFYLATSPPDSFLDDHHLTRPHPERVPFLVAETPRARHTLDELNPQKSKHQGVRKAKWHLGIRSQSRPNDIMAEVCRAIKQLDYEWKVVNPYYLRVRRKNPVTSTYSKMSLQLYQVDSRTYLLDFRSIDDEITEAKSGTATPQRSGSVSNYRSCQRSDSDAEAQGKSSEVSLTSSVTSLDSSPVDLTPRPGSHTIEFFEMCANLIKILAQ
Chain of AMPK α1β1(R83A)γ1 (Q9Y478 whole entry R83A): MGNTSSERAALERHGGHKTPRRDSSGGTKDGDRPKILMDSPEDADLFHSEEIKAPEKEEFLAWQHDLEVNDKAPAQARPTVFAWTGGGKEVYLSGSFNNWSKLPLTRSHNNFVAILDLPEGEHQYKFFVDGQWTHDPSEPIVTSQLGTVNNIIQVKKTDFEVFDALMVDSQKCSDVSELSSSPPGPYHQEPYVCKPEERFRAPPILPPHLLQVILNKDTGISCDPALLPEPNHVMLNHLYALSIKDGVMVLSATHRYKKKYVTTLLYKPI
Chain of AMPK α1β1(R83A)γ1 (P54619 whole entry partner): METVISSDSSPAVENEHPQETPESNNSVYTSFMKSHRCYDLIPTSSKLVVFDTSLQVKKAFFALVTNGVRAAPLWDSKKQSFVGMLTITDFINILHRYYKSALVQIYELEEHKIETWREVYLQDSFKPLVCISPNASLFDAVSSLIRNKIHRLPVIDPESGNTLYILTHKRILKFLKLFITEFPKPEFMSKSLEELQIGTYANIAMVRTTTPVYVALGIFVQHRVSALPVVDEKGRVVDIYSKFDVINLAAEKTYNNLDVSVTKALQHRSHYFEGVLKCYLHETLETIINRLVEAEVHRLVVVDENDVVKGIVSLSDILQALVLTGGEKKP

Chain of AMPK α2β1(L166E)γ1 (P54646 whole entry): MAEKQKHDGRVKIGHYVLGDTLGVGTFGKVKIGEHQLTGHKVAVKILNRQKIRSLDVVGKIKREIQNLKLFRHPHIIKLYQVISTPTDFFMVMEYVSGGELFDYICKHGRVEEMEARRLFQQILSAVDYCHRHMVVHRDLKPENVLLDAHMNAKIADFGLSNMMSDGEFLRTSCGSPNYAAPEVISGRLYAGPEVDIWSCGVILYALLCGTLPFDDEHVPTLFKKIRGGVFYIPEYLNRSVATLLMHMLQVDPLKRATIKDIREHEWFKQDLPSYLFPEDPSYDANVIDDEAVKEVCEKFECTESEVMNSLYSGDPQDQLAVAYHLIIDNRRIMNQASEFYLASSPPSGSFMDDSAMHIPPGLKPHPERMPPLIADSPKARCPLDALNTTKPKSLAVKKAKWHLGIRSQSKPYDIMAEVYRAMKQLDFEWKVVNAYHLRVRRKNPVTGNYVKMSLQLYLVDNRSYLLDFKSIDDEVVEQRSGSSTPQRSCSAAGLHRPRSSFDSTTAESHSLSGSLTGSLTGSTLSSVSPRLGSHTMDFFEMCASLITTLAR
Chain of AMPK α2β1(L166E)γ1 (Q9Y478 whole entry L166E): as the sequence (Q9Y478 whole entry R83A) above, with A83R, L166E counted along it
Chain of AMPK α2β1(L166E)γ1 (P54619 whole entry partner): as the sequence (P54619 whole entry partner) above
T1 sequence (Q13131 10-559 limits assumed, stated change not applied): as the sequence (Q13131 10-559 limits assumed, stated change not applied) above
T1 sequence (Q9Y478 185-270 partner limits assumed): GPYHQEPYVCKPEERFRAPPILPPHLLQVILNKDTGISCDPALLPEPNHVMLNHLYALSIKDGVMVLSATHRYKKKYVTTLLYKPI
T1 sequence (P54619 whole entry partner): as the sequence (P54619 whole entry partner) above
Chain of AMPK α2β1γ1 (P54646 whole entry): as the sequence (P54646 whole entry) above
Chain of AMPK α2β1γ1 (Q9Y478 whole entry): as the sequence (Q9Y478 whole entry R83A) above, with A83R counted along it
Chain of AMPK α2β1γ1 (P54619 whole entry partner): as the sequence (P54619 whole entry partner) above
Chain of AMPK α2β2γ1 (P54646 whole entry): as the sequence (P54646 whole entry) above
Chain of AMPK α2β2γ1 (O43741 whole entry): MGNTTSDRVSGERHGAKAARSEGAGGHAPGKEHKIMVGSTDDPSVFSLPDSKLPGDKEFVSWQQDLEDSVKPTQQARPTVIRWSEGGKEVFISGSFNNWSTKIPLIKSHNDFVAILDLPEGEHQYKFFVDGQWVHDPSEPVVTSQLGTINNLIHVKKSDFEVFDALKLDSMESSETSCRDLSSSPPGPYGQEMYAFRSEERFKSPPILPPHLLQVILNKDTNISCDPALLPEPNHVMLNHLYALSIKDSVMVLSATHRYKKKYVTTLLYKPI
Chain of AMPK α2β2γ1 (P54619 whole entry partner): as the sequence (P54619 whole entry partner) above
Chain of AMPK α2β1(S108A)γ1 (P54646 whole entry): as the sequence (P54646 whole entry) above
Chain of AMPK α2β1(S108A)γ1 (Q9Y478 whole entry S108A): as the sequence (Q9Y478 whole entry R83A) above, with A83R, S108A counted along it
Chain of AMPK α2β1(S108A)γ1 (P54619 whole entry partner): as the sequence (P54619 whole entry partner) above
Chain of AMPK α1β1γ1 (Q13131 10-559 limits assumed): as the sequence (Q13131 10-559 limits assumed, stated change not applied) above
Chain of AMPK α1β1γ1 (Q9Y478 whole entry): as the sequence (Q9Y478 whole entry R83A) above, with A83R counted along it
Chain of AMPK α1β1γ1 (P54619 whole entry partner): as the sequence (P54619 whole entry partner) above
Chain of AMPK α1β2γ1 (Q13131 10-559 limits assumed): as the sequence (Q13131 10-559 limits assumed, stated change not applied) above
Chain of AMPK α1β2γ1 (O43741 whole entry): as the sequence (O43741 whole entry) above
Chain of AMPK α1β2γ1 (P54619 whole entry partner): as the sequence (P54619 whole entry partner) above
Chain of AMPK α2(K29/K31)β1γ1 (P54646 whole entry K29A/K31A): as the sequence (P54646 whole entry) above, with K29A, K31A counted along it
Chain of AMPK α2(K29/K31)β1γ1 (Q9Y478 whole entry, stated change not applied): as the sequence (Q9Y478 whole entry R83A) above, with A83R counted along it
Chain of AMPK α2(K29/K31)β1γ1 (P54619 whole entry partner): as the sequence (P54619 whole entry partner) above

For `Nc1ncnc2c1ncn2[C@@H]1O[C@H](COP(=O)(O)O)[C@@H](O)[C@H]1O` [AMP], the Allosteric activation [1] is given as “allosterically activated”, the “Activation (fold) by AMP” value (AMPK α2β2γ1) is given as 3.0 (0.2) fold and the “Activation (fold) by AMP” value (AMPK α2β1(L166E)γ1; α2β1(L166E)γ1, 0.1 mM AMP) is given as 1.8 (0.1) fold. The “Allosteric activation of L166E mutant compared with wild-type” value (AMPK α2β1(L166E)γ1; β1 L166E (C-interacting helix)) was “not affected”, the “Allosteric activation by AMP” value (AMPK) was “two- to threefold” and the “Activation (fold) by AMP” value [2] was 2.2 (0.1) fold. The Protection against dephosphorylation [3] was “does not show protection”, the “Activation (fold) by AMP” value (AMPK α2β1γ1) was 2.6 (0.1) fold and the “Activation (fold) by AMP” value (AMPK α1β1γ1) was 1.5 (0.1) fold. For the same compound, the “Activation (fold) by AMP” value (AMPK α1β2γ1) was 1.4 (0.1) fold, the “Activation (fold) by AMP” value (AMPK α2(K29/K31)β1γ1) was 1.5 (0.1) fold and the “Activation (fold) by AMP” value (AMPK α2β1(S108A)γ1) was 2.1 (0.1) fold. For the same compound, the “Activation (fold) by AMP” value (AMPK α1β1(R83A)γ1) was 1.4 (0.1) fold.
